Four molecules from patent publication US11440883B2, “Heterocyclic compound and use thereof” (Takeda Pharmaceutical Company Limited, priority 2017, dated 2022) can be followed below.

Assay [1] concerns cynomolgus monkeys. The assay can be described thus: Evaluation of wake-promoting effects in cynomolgus monkeys (EEG/EMG/EOG). It is filed as in vivo, cynomolgus monkey. The note with it: Macaca fascicularis, sc, at ZT12, time spent in wakefulness for 4 h after administration, male cynomolgus monkeys, read-out: Wakefulness time (% of vehicle treatment) (Mean, n = 1-2).
Assay [2] deals with T1, human orexin type 2 receptor (Homo sapiens, UniProt O43614).
T1 construct: expressed in transfected cells
T1 sequence (O43614 1-444): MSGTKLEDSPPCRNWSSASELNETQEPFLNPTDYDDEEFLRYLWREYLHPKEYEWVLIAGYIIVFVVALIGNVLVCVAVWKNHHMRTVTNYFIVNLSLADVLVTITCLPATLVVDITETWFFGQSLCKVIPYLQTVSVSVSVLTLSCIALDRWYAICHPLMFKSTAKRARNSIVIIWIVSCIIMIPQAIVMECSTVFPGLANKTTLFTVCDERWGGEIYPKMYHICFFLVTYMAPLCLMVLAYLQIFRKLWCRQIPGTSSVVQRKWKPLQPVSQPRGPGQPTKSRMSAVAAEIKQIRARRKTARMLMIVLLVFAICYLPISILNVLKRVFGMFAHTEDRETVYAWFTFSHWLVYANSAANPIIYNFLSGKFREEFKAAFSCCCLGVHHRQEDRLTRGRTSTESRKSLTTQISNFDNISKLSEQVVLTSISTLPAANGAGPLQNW
The assay can be described thus: Measurement of orexin type 2 receptor agonist activity (Fluo-4 calcium fluorescence, FDSS). It is filed as cell-based. Conditions: 3 μM test compound; CHO cells expressing human OX2 receptor; DMSO = 0%, orexin A (human) = 100%. From the text: To obtain a cell clone stably expressing human orexin type 2 receptor, human orexin type 2 receptor cDNA was inserted into pcDNA3.1(+) plasmid vector (Invitrogen), and a plasmid DNA for expression of human orexin type 2 receptor (pcDNA3.1(+)/hOX2R) was cloned. The plasmid DNA was introduced into CHO-dhfr cell by an electroporation method, and human orexin type 2 receptor expressing clone cells were obtained by limiting dilution method by using G418 drug resistance as a selection marker.
CHO cells forcibly expressing human OX2 receptor were seeded in each well of 384 well black transparent bottom plate (BD Falcon) at 7,500 cells/well, and cultured for one day in a 5% CO2 incubator at 37° C. […] A test compound prepared by diluting with assay buffer B (HBSS, 20 mM HEPES, 0.1% BSA) was added at 10 μL/well, and the fluorescence value was measured by FDSSUCELL (Hamamatsu Photonics K.K.) every one sec for 1 min, and thereafter every two sec for 1 min 40 sec. The activity (%) of the test compound was calculated assuming that variation in the fluorescence value when DMSO was added instead of the test compound was 0%, and variation in the fluorescence value when orexin A (human) (PEPTIDE INSTITUTE, INC.) was added at the final concentration of 10 nM was 100%.

Consider `CCS(=O)(=O)N[C@H]1CCN(C(=O)C(C)(C)O)[C@H]1Cc1cccc(-c2cccc(F)c2)c1F` [Example 482, N-((2S,3S)-2-((2,3′-difluorobiphenyl-3-yl)methyl)-1-(2-hydroxy-2-methylpropanoyl)pyrrolidin-3-yl)ethanesulfonamide], for which the response vs control in vivo at 1 mg/kg in assay [1] stood at 281%.
Regarding `CCS(=O)(=O)N[C@H]1CCN(C(=O)C(C)(C)O)[C@H]1Cc1cccc(-c2cc(F)cc(F)c2)c1F` [Example 484, N-((2S,3S)-1-(2-hydroxy-2-methylpropanoyl)-2-((2,3′,5′-trifluorobiphenyl-3-yl)methyl)pyrrolidin-3-yl)ethanesulfonamide], the response vs control in vivo at 1 mg/kg in assay [1] stood at 492%.
The same measure, in the same setting: the same measure for `CC(C)(O)C(=O)N1CC[C@H](NS(C)(=O)=O)[C@@H]1Cc1cccc(-c2cc(F)cc(F)c2)c1F` [Example 483, N-((2S,3S)-1-(2-hydroxy-2-methylpropanoyl)-2-((2,3′,5′-trifluorobiphenyl-3-yl)methyl)pyrrolidin-3-yl)methanesulfonamide]: 359%.
On to `CCNC(=O)N1CCC[C@H](NS(C)(=O)=O)[C@@H]1Cc1cccc(O[Si](C(C)C)(C(C)C)C(C)C)c1` (relative stereo) [Example 17, cis-N-ethyl-3-((methylsulfonyl)amino)-2-(3-((triisopropylsilyl)oxy)benzyl)piperidine-1-carboxamide], for which the “OX2R agonist activity (3 μM, %)” value in assay [2] turned out to be 29%.
